Consider eight compounds from ChEMBL document CHEMBL1201862, “PubChem BioAssay data set” (2004).

Some test systems named below: CAKI-1; EKVX; HCT-116; IGROV-1; KM12; NCI-H460; OVCAR-3; OVCAR-4; OVCAR-5; RXF 393; SF-268; SF-539; SK-OV-3; SNB-19; SW-620; UACC-257; UACC-62; SK-MEL-2; SK-MEL-5; RPMI-8226.
Holding throughout (test): growth of human tumour cells (NCI), 48 h

Each structure is given as a SMILES string.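 Interpolation was linear, between the two tested concentrations surrounding the appropriate level; five concentrations were tested over 48 hours in 96-well plates. Here, GI50 denotes the concentration required for 50% inhibition of growth.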 Active and inactive are the calls of the source. Rule as the data show it: active = GI50 up to about 1.1 µM and inactive = higher.

As to `O=C1OC2(C(F)(F)F)Oc3ccccc3CN2C12CCCCC2` (stereo not given), the GI50 with CAKI-1 was 18.7 µM (inactive); in the experiment with EKVX, 38.2 µM (inactive); in the experiment on HCT-116, 20.2 µM (inactive); with IGROV-1, 48.4 µM (inactive); with KM12, 23.8 µM (inactive); in the experiment with NCI-H460, 22.5 µM (inactive). The GI50 with OVCAR-3 was 28.6 µM (inactive); in the experiment with OVCAR-4, 31.8 µM (inactive); with OVCAR-5, 22 µM (inactive); with RXF 393, 20.4 µM (inactive); in the experiment on SF-268, 35.6 µM (inactive); in the experiment with SF-539, 33.4 µM (inactive). Also, the GI50 was 26.7 µM (inactive) in the experiment on SK-OV-3; 36.3 µM (inactive) in the experiment on SNB-19; 35.6 µM (inactive) with SW-620; 27 µM (inactive) in the experiment with UACC-257; 28 µM (inactive) with UACC-62.
Regarding `CC1(O)C(C)(O)C(C)(O)C1(C)O` (stereo not given), the GI50 in the experiment on CAKI-1, in the experiment with EKVX, with HCT-116, in the experiment with IGROV-1, with KM12 and in the experiment with NCI-H460 was > 100 µM (inactive) each time. In addition, the GI50 in the experiment with OVCAR-3, in the experiment with OVCAR-4, with OVCAR-5, with RXF 393, in the experiment with SF-268 and with SF-539 was > 100 µM (inactive) throughout. Moreover, the GI50 with SK-MEL-2, in the experiment with SK-MEL-5, in the experiment on SK-OV-3, with SNB-19, in the experiment with SW-620 and with UACC-257 was > 100 µM (inactive) throughout. The GI50 with UACC-62 is > 100 µM (inactive).
On to `O=c1c2cccnc2ncn1CCN1CCCC1`, for which the GI50 in the experiment on CAKI-1, in the experiment on EKVX, with HCT-116, in the experiment with IGROV-1, with KM12 and with NCI-H460 was > 100 µM (inactive) in each case. For the same compound, the GI50 in the experiment with OVCAR-3, in the experiment on OVCAR-4, in the experiment with OVCAR-5, in the experiment with RXF 393, in the experiment with SF-268 and in the experiment on SF-539 was > 100 µM (inactive) in each case. The GI50 with SK-MEL-2, in the experiment on SK-MEL-5, in the experiment on SK-OV-3, with SNB-19, with SW-620 and in the experiment on UACC-62 was > 100 µM (inactive) throughout.
As to `O=c1[nH]nc(-c2ccccc2)n1/N=C/c1ccco1`, the GI50 in the experiment with CAKI-1, with EKVX, with HCT-116, with IGROV-1, in the experiment with KM12 and with NCI-H460 was > 100 µM (inactive) throughout. The GI50 with OVCAR-3 is > 100 µM (inactive); in the experiment on OVCAR-4, 30.1 µM (inactive); in the experiment on OVCAR-5, > 100 µM (inactive); in the experiment on RXF 393, > 100 µM (inactive); in the experiment on SF-268, > 100 µM (inactive); in the experiment with SF-539 it was > 100 µM (inactive). The GI50 in the experiment on SK-MEL-2, in the experiment on SK-MEL-5, with SK-OV-3, in the experiment with SNB-19, in the experiment on SW-620 and in the experiment with UACC-257 was > 100 µM (inactive) each time. Further, the GI50 in the experiment on UACC-62 was 83.2 µM (inactive).
`C1CCN2CC3CONC3C2C1` (stereo not given): the GI50 in the experiment with CAKI-1, with EKVX, in the experiment on HCT-116, in the experiment on IGROV-1, in the experiment on KM12 and with NCI-H460 was > 100 µM (inactive) throughout. In addition, the GI50 with OVCAR-3, in the experiment on OVCAR-4, in the experiment on OVCAR-5, in the experiment with RPMI-8226, in the experiment with RXF 393 and in the experiment on SF-268 was > 100 µM (inactive) throughout. Moreover, the GI50 with SF-539, in the experiment with SK-MEL-2, with SK-MEL-5, with SNB-19, in the experiment on SW-620 and with UACC-257 was > 100 µM (inactive) throughout. The GI50 with UACC-62 is > 100 µM (inactive).
In the case of `COC(=O)N(C(=O)OC)C(C(=O)O)C(C)C` (stereo not given), the GI50 in the experiment on CAKI-1, in the experiment on EKVX, in the experiment with KM12, with NCI-H460, with OVCAR-4 and in the experiment on OVCAR-5 was > 100 µM (inactive) each time. For the same compound, the GI50 is 65 µM (inactive) in the experiment on RXF 393; > 100 µM (inactive) with SF-268; > 100 µM (inactive) with SF-539; > 100 µM (inactive) in the experiment with SK-MEL-2; > 100 µM (inactive) in the experiment with SNB-19; > 100 µM (inactive) with SW-620. The GI50 in the experiment on UACC-257 was > 100 µM (inactive).
On to `CC(C)C.C[N+](C)(C)C.OC(c1ccccc1)(C(F)(F)F)C(F)(F)F.OC(c1ccccc1)(C(F)(F)F)C(F)(F)F.[SiH3-]`, for which the GI50 was 11.3 µM (inactive) with CAKI-1; 3.73 µM (inactive) with EKVX; 3.46 µM (inactive) in the experiment on HCT-116; 3.92 µM (inactive) with KM12; 2.04 µM (inactive) with NCI-H460; 0.678 µM (active) with OVCAR-3. The GI50 in the experiment on OVCAR-4 is 7.59 µM (inactive); in the experiment with OVCAR-5, 2.28 µM (inactive); with RPMI-8226, 4.43 µM (inactive); in the experiment on RXF 393, 3.18 µM (inactive); in the experiment with SF-539, 2.51 µM (inactive); with SK-MEL-2, 9.1 µM (inactive). Besides, the GI50 with SK-MEL-5 is 10.4 µM (inactive); in the experiment with SNB-19 it was 3.26 µM (inactive); in the experiment on SW-620 it was 5 µM (inactive); in the experiment on UACC-257, 14.1 µM (inactive).
As for `COc1ccc2c(=O)c(C)c(-c3ccccc3)oc2c1CN(C)C` [DIMEFLINE], the GI50 in the experiment with CAKI-1, in the experiment on HCT-116, in the experiment on IGROV-1, with KM12, in the experiment with NCI-H460 and in the experiment with OVCAR-4 was > 100 µM (inactive) in each case. The GI50 was 65.5 µM (inactive) in the experiment on OVCAR-5; > 100 µM (inactive) with RPMI-8226; > 100 µM (inactive) in the experiment on RXF 393; > 100 µM (inactive) in the experiment on SF-539; > 100 µM (inactive) in the experiment with SK-MEL-5; > 100 µM (inactive) in the experiment on SK-OV-3. Also, the GI50 in the experiment on SNB-19 and in the experiment on UACC-62 was > 100 µM (inactive) throughout.
